Read-outs that look alike come from different tables or passages of the source.

What all share (assay type): cell-based
One test has as its system EJ-1 cells. Nature of the test: EJ-1 cell growth inhibition (direct antitumor action, CellTiterGlo). Particulars: for IC50: EJ-1 (bladder cancer) growth inhibition, 4 days culture; for direct antitumor activity (in words): EJ-1 growth inhibition. On the procedure: (§1) The direct antitumor action of bisphosphonic acid POM ester and bisphosphonic acid was studied by comparison using U937.
The direct antitumor action of bisphosphonic acid POM ester derivatives and bisphosphonic acids was studied by comparison using EJ-1. It was performed in the same manner as in Experimental Example 1 except that EJ-1 was used as the cell to be used. For recovery of the cells, a conventional EDTA trypsin treatment was performed.
The direct antitumor action of bisphosphonic acid POM esters and bisphosphonic acids was studied by comparison using EJ-1. It was performed in the same manner as in Experimental Example 2 except that EJ-1 was used as the cell to be used. For recovery of the cells, a conventional EDTA trypsin treatment was performed.
(§2) The direct antitumor action of various bisphosphonic acid POM esters was studied by comparison using U937 and EJ-1. The measurement was performed according to Experimental Example 2 and Experimental Example 4.

The subject of a further test is U937 cells. Nature of the test: U937 cell growth inhibition (direct antitumor action, CellTiterGlo). The settings on record: for IC50: U937 cell growth inhibition, 4 days culture; for direct antitumor activity (in words): U937 growth inhibition. Here is the method:
as §1, §2

For a further test, the system named is EJ-1 cells / γδ T cells. Nature of the test: TNF-α production from γδ T cells stimulated by compound-pretreated EJ-1 cells (indirect antitumor action, ELISA). The settings on record: for EC50: EJ-1 pretreated 4 hr with compound, 16 hr with γδ T cells, TNF-α ELISA, read-out: TNF-α50. On the procedure:
The indirect antitumor action of bisphosphonic acid POM esters and bisphosphonic acids was studied by comparison using EJ-1. In principle, EJ-1 is treated with a compound, washed, and reacted with γδ T cells, and the cytotoxic ability is studied by comparison, by quantifying TNF-α produced by γδ T cells during cell disordering. TNF-α is generally used as an index of γδ T cell induction ability and/or proliferative capacity, and γδ T cells are considered to be induced and/or proliferated in proportion to the TNF-α amount (Journal of Immunology, 154, 5986-5994 (1995)). Since the produced TNF-α is what is called a tumor necrosis factor, it is considered to have an action to lower proliferation of cancer cells or induce cell death.
Thereto was added a solution (500 μl) of compounds 3, 5, 6, 7, which are bisphosphonic acid POM ester derivatives, obtained by serially diluting 10 mM stock solution 10-fold from 20 μM, or a solution (500 μl) of bisphosphonic acid 10, 12, 13, 14 compound obtained by serially diluting 10-fold from 200 μM, and the cells were suspended well. These conical tubes were stood at 37° C. for 4 hr, and the cells were washed 3 times with 5 ml of culture medium. To these cells was added 500 μl of medium, and the cells were suspended well. […] The cell culture medium was suspended well, and the plate was centrifuged at 1,700 rpm, 4° C. for 2 min and the culture supernatant (150 μl) was taken and placed in another round-bottomed 96 well plate. The plate was frozen at −80° C. overnight, left standing at room temperature for 1 hr, stirred well and 100 μl thereof was subjected to ELISA of TNF-α. The content of TNF-α was calculated from the analytical curve of TNF-α. These were performed in triplicate, and a graph showing bisphosphonic acid POM ester derivative and the corresponding bisphosphonic acid as one pair was plotted. […] The results of bisphosphonic acid POM ester derivative are shown by -●-, and the results of bisphosphonic acid are shown by -◯-.
The indirect antitumor action of bisphosphonic acid POM esters and bisphosphonic acids was quantitatively studied by comparison using EJ-1. […] Thereto was added a solution (500 μl) of a bisphosphonic acid POM ester derivative obtained by serially diluting 10 mM stock solution 10-fold from 20 μM, or a bisphosphonic acid solution (500 μl) serially diluted 10-fold from 200 μM was added, and the cells were suspended well. These conical tubes were stood at 37° C. for 4 hr, and the cells were washed 3 times with 5 ml of culture medium. To these cells was added 500 μl of medium, and the cells were suspended well. […] The cell culture medium was suspended well, and the plate was centrifuged at 1,700 rpm, 4° C. for 2 min and the culture supernatant (150 μl) was taken and placed in another round-bottomed 96 well plate. The plate was frozen at −80° C. overnight, left standing at room temperature for 1 hr, stirred well and 100 μl thereof was subjected to ELISA of TNF-α. The content of TNF-α was calculated from the analytical curve of TNF-α. These were performed in triplicate, and a half of the concentration of compounds 1-7, which are bisphosphonic acid POM ester derivatives, and compounds 8-14, which are bisphosphonic acids, necessary for producing the maximum amount of TNF-α from γδ T cells was calculated as TNF-α50, and summarized in Table 6.
Therefore, the TNF-α50 value of various bisphosphonic acid POM ester derivatives was calculated. […] Thereto was added a solution (500 μl) of compounds 1-7 and 15-39, which are bisphosphonic acid POM ester derivatives, and compound 42, which is other bisphosphonic acid ester derivative, obtained by serially diluting 10 mM stock solution 10-fold from 20 μM, and the cells were suspended well. These conical tubes were stood at 37° C. for 4 hr, and the cells were washed 3 times with 5 ml of culture medium. To these cells was added 500 μl of medium, and the cells were suspended well. […]
Background: In an ELISA, binding on a coated surface is turned into a signal by an enzyme label.

Consider `CC(C)(C)C(=O)OCOP(=O)(OCOC(=O)C(C)(C)C)C(CNc1nc(-c2ccccc2)cs1)P(=O)(OCOC(=O)C(C)(C)C)OCOC(=O)C(C)(C)C` [Compound 35, tetrakispivaloyloxymethyl 2-(4-phenylthiazol-2-ylamino)ethylidene-1,1-bisphosphonate], for which the IC50 (as a rule, the point on the concentration scale where inhibition reaches its midpoint) was 3.5 µM with EJ-1 cells and 1.1 µM in the test on U937 cells. In addition, the “direct antitumor activity (in words)” value in the test on EJ-1 cells and in the test on U937 cells was “high activity” in each case. Besides, in the test on EJ-1 cells / γδ T cells, the EC50 was more than 10 µM.

For the compound `CC(C)(C)C(=O)OCOP(=O)(OCOC(=O)C(C)(C)C)C(CNc1ccon1)P(=O)(OCOC(=O)C(C)(C)C)OCOC(=O)C(C)(C)C` [Compound 36, tetrakispivaloyloxymethyl 2-(isoxazol-3-ylamino)ethylidene-1,1-bisphosphonate], the IC50 with EJ-1 cells was 15 µM; with U937 cells, 7.9 µM. Also, the EC50 with EJ-1 cells / γδ T cells is 8 µM.

Turning to `Cc1cc(NCC(P(=O)(OCOC(=O)C(C)(C)C)OCOC(=O)C(C)(C)C)P(=O)(OCOC(=O)C(C)(C)C)OCOC(=O)C(C)(C)C)no1` [Compound 37, tetrakispivaloyloxymethyl 2-(5-methylisoxazol-3-ylamino)ethylidene-1,1-bisphosphonate], the IC50 in the test on EJ-1 cells came to 16 µM; in the test on U937 cells, 7.9 µM. In addition, the EC50 in the test on EJ-1 cells / γδ T cells was more than 10 µM.

As for `CC(C)(C)C(=O)OCOP(=O)(OCOC(=O)C(C)(C)C)C(CNc1nncs1)P(=O)(OCOC(=O)C(C)(C)C)OCOC(=O)C(C)(C)C` [Compound 38, tetrakispivaloyloxymethyl 2-(1,3,4-thiadiazol-2-ylamino)ethylidene-1,1-bisphosphonate], the IC50 in the test on EJ-1 cells was determined as 8.5 µM; in the test on U937 cells it was 11 µM. Besides, the EC50 with EJ-1 cells / γδ T cells is 1.9 µM.

Consider `CC(C)(C)C(=O)OCOP(=O)(OCOC(=O)C(C)(C)C)C(CNc1ccncn1)P(=O)(OCOC(=O)C(C)(C)C)OCOC(=O)C(C)(C)C` [Compound 39, tetrakispivaloyloxymethyl 2-(pyrimidin-4-ylamino)ethylidene-1,1-bisphosphonate], for which, in the test with EJ-1 cells, inhibition was half-maximal at 0.059 µM (IC50) and the “direct antitumor activity (in words)” value was “particularly high activity”. In the test on U937 cells, the IC50 came to 0.65 µM and the “direct antitumor activity (in words)” value was “particularly high activity”. Besides, in the test with EJ-1 cells / γδ T cells, the EC50 came out at 0.062 µM. For the same compound, the “TNF-α production induction activity (in words)” value in the test on EJ-1 cells / γδ T cells (EJ-1 pretreated with compound, γδ T cells) is reported as “high activity”.

As to `CC(=O)OCOP(=O)(OCOC(C)=O)C(CNc1ccccn1)P(=O)(OCOC(C)=O)OCOC(C)=O` [Compound 42, tetrakisacetyloxymethyl 2-(pyridin-2-ylamino) ethylidene-1,1-bisphosphonate], the IC50 in the test with EJ-1 cells (EJ1, 96 h) turned out to be 16 µM; with U937 cells (Homo sapiens, U-937, 96 h), 17 µM. Moreover, the EC50 with EJ-1 cells / γδ T cells (EJ1) was determined as 7.1 µM.
